Take `OC1OC(C2COC3(CCCCC3)O2)C2OC3(CCCCC3)OC12` (stereo not drawn): the melting point – broadly, the temperature, or range, at which the solid turns liquid – was in the range of 120 to 124 °C.
The molecule `CCOc1ccc(N=Nc2ccc(OCC)cc2)cc1` registered a melting point of 162 °C.
Turning to `CCCCCCCCC=O`, the melting point was -18 °C.
Under `COc1cc2c(cc1C)C(C(=O)O)C2` (stereo not drawn) stands 138 °C.
In the case of `O=C(C=Cc1ccccc1)C=Cc1ccccc1`, the melting point amounted to 111 °C.
In turn, `O=C(O)c1cccc2cccnc12` returned a melting point of 187 °C.
As to `Cc1cc(=O)oc2cc(O)c(O)cc12`, the melting point came to 275 °C.
In the case of `CSc1nc2cc(N=Cc3ccc([N+](=O)[O-])cc3)ccc2[nH]1`, the melting point lay within 259 to 260 °C.
Under `O=C(O)C1CSC(c2ccccc2)N1` (mixture of isomers) stands 158 to 162 °C; under `C=CC(=O)NC(CO)(CO)CO`, 136 to 141 °C; under `BrC(c1ccccc1)C(Br)c1ccccc1` (stereo not drawn), 239 °C.
Regarding `CCCCNCC(=O)Nc1c(C)cccc1Cl`, the melting point stood at 45.5 °C.
Regarding `O=C(O)Cc1c(F)c(F)c(F)c(F)c1F`, the melting point worked out at 109 °C.
Under `N#Cc1c(Cl)cccc1Oc1ccccc1` stands 61 °C; under `CC1(C)C2CCC1(C)C(O)/C2=C\CC(=O)O` (stereo not drawn), 51 to 52 °C.
Under `CC(C)CCBr` stands -112 °C.
Under `CCCCCCCCC=CCCCCCCCC(=O)OCCCC` stands -26.5 °C; under `CCC1OC(=O)C(C)C(OC2OC(C)CC(N(C)C)C2O)C(C)CC(C)C(=O)C=CC1(C)O` (stereo not drawn), 196 °C.
As for `Sc1nccn1-c1cc(Cl)ccc1Cl`, the melting point came to 273 °C.
Molecule `Cc1ccc2ccc3ccccc3c2c1` had a melting point of 65 °C.
Under `Cc1c2ccccc2c(C)c2c1ccc1ccccc12` stands 122 °C.
The molecule `CCSc1nnc(NC(=O)C(C(F)(F)F)C(F)(F)F)s1` gave a melting point of 159 °C.
Under `O=C(NC(Cc1ccc(Br)s1)C(=O)O)OCC1c2ccccc2-c2ccccc21` (stereo not drawn) stands 158 °C; under `N#CC1C(=O)CC(=O)CC1c1ccccc1` (stereo not drawn), 177 °C; under `CCC(CC)C(=O)O`, -14 °C.
Take `COc1ccc(CNc2ccccn2)cc1`: the melting point is 121 to 126 °C.
Under `Sc1c(Cl)c(Cl)c(Cl)c(Cl)c1Cl` stands 232 °C; under `C=C1CCC(=O)O1`, 18 °C; under `CC(C)(C)OC(=O)N[C@@H](CC(=O)OCc1ccccc1)C(=O)O`, 111 °C.
Molecule `N#Cc1c(N)oc(-c2ccco2)c1-c1ccco1` had a melting point of 183 to 185 °C.
The molecule `O=C(CBr)Nc1ccccc1C(=O)c1ccccc1` registered a melting point of 94 to 95 °C.
Under `NN=C(/C(=N/N)c1ccccc1)c1cccc2ccccc12` stands 217 to 218 °C; under `N#CCc1ccc(Cc2ccccc2)cc1`, 35.5 °C; under `COc1c(Cl)c(Cl)c(O)c(Cl)c1Cl`, 116 °C.
Under `Cc1c(CCO)c(=O)n2c([nH]c3ccccc32)c1C#N` stands 250 °C; under `Nc1ncnc2[nH]ncc12`, 325 °C; under `CCCCOC(=O)c1ccc([N+](=O)[O-])cc1`, 35.5 °C.
Under `C(=NN=Cc1ccccc1)c1ccccc1` stands 93 °C.
The molecule `O=C(O)C(F)c1ccccc1` (stereo not drawn) yielded a melting point of 82 to 85 °C.
Under `CC(C)(C)c1ccc2c(c1)C(=O)c1ccccc1C2=O` stands 99 °C; under `ON=CC1=C(C#Cc2ccccc2)CCC1`, 105 to 106 °C; under `O=C1C(=O)N(c2ccccc2)c2ccccc21`, 141 °C.
Turning to `COC(=O)CC(=O)CCl`, the melting point fell in the range of 14 to 16 °C.
Take `O=C(O)c1ccno1`: the melting point is 143 °C.
In turn, `CC(=O)Nc1cc2c(cc1/C=C/c1ccccc1)CC(c1ccccc1)N2C(C)=O` (stereo not drawn) registered a melting point of 272 °C.
Under `CCOC(=O)c1csc(-c2cccc(Cl)c2Cl)n1` stands 108 to 110 °C.
Under `CC(C)(C)OC(=O)Nc1cccs1` stands 151 to 152 °C.
Under `CC(=O)CC(O)C(Cl)(Cl)Cl` (stereo not drawn) stands 75 to 76 °C; under `N=C(c1ccccc1)c1ccccc1`, -30 °C; under `O=C(O)c1ccc(N2C(=O)C3ON=C(C(=O)c4ccc(Cl)cc4)C3C2=O)cc1` (stereo not drawn), 143 °C.
In the case of `COC1=C(Br)C(=O)C2(C)CCC1C2(C)C` (stereo not drawn), the melting point was found to be 104 °C.
In turn, `CC(=O)Oc1ccc(C)c(C)c1` registered a melting point of 22 °C.
Under `CC1(C)SC2C(N3C(=O)C(c4ccccc4)NC3(C)C)C(=O)N2C1C(=O)O` (stereo not drawn) stands 190 °C.
Under `CCCCOCCOP(=O)(OCCOCCCC)OCCOCCCC` stands -70 °C; under `CCC(C)C(=O)NC1CCC(=O)N(CCc2ccccc2)C1=O` (stereo not drawn), 108 °C; under `NNC(=O)Cc1nc(-c2cnccn2)no1`, 184 to 186 °C.
Under `Cc1noc(-c2ccccc2)c1CO` stands 109 to 110 °C; under `C[Si](Cn1cncn1)(c1ccc(F)cc1)c1ccc(F)cc1`, 54 °C; under `COc1ccc2c(c1)CCC1C2CCC2(C)C(O)C(O)CC12` (stereo not drawn), 159 °C.
As to `O=Cc1ccccc1OC1OC(CO)C(O)C(O)C1O` (stereo not drawn), the melting point stood at 178 °C.
Under `CSCCC(NC(=O)c1ccccc1)C(=O)O` (racemic) stands 150 to 154 °C.
Under `Cc1ccc(N=C=Nc2ccc(C)cc2)cc1` stands 58.5 °C; under `O=Cc1ccc(Sc2ccc(Cl)cc2)c([N+](=O)[O-])c1`, 120 °C; under `CC(=O)CC(=O)Nc1ccc(-c2ccc(NC(=O)CC(C)=O)c(C)c2)cc1C`, 212 °C.
In turn, `c1ccc(-c2c3ccccc3c(-c3ccccc3)c3c(-c4ccccc4)c4ccccc4c(-c4ccccc4)c23)cc1` showed a melting point of 332 °C.
Under `COC1CC2C3(C)CCCC2(COC3O)C2C(OC(C)=O)CC3C(C)C(=O)C12C3O` (stereo not drawn) stands 200 °C; under `CC1CCC2C(C)(C)C3CC12CCC3(C)O` (stereo not drawn), 86 °C; under `NC(=O)c1ccc(F)c(Cl)c1`, 146 °C.
Under `C(COCCOCC1CO1)OCCOCC1CO1` (stereo not drawn) stands -13 °C; under `COc1ncccc1C(=O)O`, 149 °C.
With `CN(C)C1C(=O)C(=C(N)O)C(=O)C2(O)C(=O)C3=C(O)c4c(O)cccc4C(C)(O)C3C(O)C12` (stereo not drawn), the melting point is 121 °C.
Turning to `CCOC(=O)CC(CC(=O)OCC)(c1cc(C)c(O)c(C)c1)c1cc(C)c(O)c(C)c1`, the melting point stood at 178 °C.
The molecule `O=C(O)CCCC1CCCCC1` yielded a melting point of 31 °C.
Molecule `Nc1ccc(Br)nc1` had a melting point of 77 °C.
As to `CC=CC(=O)OC1CC2OC3C=C(C)C(=O)CC3(C)C1(C)C21CO1` (stereo not drawn), the melting point worked out at 118 °C.
Under `CC(=O)Oc1ccc(C(c2ccc(OC(C)=O)cc2)c2ccccn2)cc1` stands 134 °C; under `COc1cccc2cccnc12`, 49.5 °C.
In turn, `CC(=O)CCc1ccccc1` had a melting point of -13 °C.

The values above are taken from a melting point compilation (Tetko et al.).
